Experiments:
[1] = 101 kPa, Liquid
[2] = xn = mol fraction of the nth substance listed; conditions: 101 kPa, Liquid, x1 = 1

CCCCn1cc[n+](C)c1.O=S(=O)([O-])C(F)(F)F [1-butyl-3-methylimidazolium trifluoromethanesulfonate]
[1]
Conditions	mass density [kg/m3]	viscosity [mPa·s]
303.15 K	1298.4	63.19
308.15 K	1294.9	51.73
313.15 K	1291.4	42.46
318.15 K	1287.8	35.17
323.15 K	1284.4	29.55
333.15 K	1277.4	21.61
343.15 K	1270.5	16.38

O [water] + CCCCn1cc[n+](C)c1.O=S(=O)([O-])C(F)(F)F
[2]
Conditions	mass density [kg/m3]	viscosity [mPa·s]
303.15 K	–	0.7977
308.15 K	–	0.719
313.15 K	–	0.6532
318.15 K	–	0.6001
323.15 K	–	0.547
333.15 K	983.2	0.4665
343.15 K	977.8	0.404

— the NIST ThermoML archive (doi:10.1021/je8003832)
